Columns and labels:
Assay type in all cases: cell-based
[1] = test system: primary umbilical cord-derived mesenchymal stem cells; experiment: Stem cell proliferation (CCK, absorbance 450 nm) after pretreatment; conditions: 24 h culture, CCK 4 h
Description: (§1) In a culture medium [high glucose DMEM (Gibco, Cat no. 11995-065); 10% fetal bovine serum (HyClone), 1% MEM non-essential amino acids solution (100×) (Gibco, Cat no. 11140-050)] containing 20 nM of exendin-4, primary umbilical cord-derived mesenchymal stem cells (ATCC No. PCS-500-010; Lot No. 63822428) were cultured for one week.
as §1, with “10” for “20”, “PMA,” for “exendin-4,”
as §1, with “10 ng/mL interferon-γ,” for “20 nM of exendin-4,”
as §1, with “10 μM” for “20 nM”, “tetrandrine,” for “exendin-4,”
as §1, with “10 μg/mL hyaluronic acid,” for “20 nM of exendin-4,”
as §1, with “30” for “20”, “substance P,” for “exendin-4,”
as §1, with “10” for “20”, “resveratrol,” for “exendin-4,”
as §1, with “10 μM” for “20 nM”, “lanifibranor,” for “exendin-4,”
(§2) Mesenchymal stem cells and the exendin-4-pretreated mesenchymal stem cells of the Example were each seeded at a density of 3,000 cells/well into 96-well plates containing 100 μL of a culture medium [high glucose DMEM (Gibco, Cat no. 11995-065), 10% fetal bovine serum (HyClone), 1% MEM non-essential amino acids solution (100×) (Gibco, Cat no. 11140-050)] per well and cultured for 24 hours in a CO2 incubator. Then, CCK solution (10 μL/well) was added, and incubation was continued for 4 hours in the CO2 incubator, followed by reading absorbance at a wavelength of 450 nm (420-480 nm) to determine proliferation.
as §2, with “PMA-pretreated” for “exendin-4-pretreated”, “proliferation. […]” for “proliferation.”

[2] = test system: primary umbilical cord-derived mesenchymal stem cells; experiment: Stem cell stemness: colony formation (CFU-F, crystal violet) after pretreatment; conditions: for colonies formed (each 50 or more cells): 1,000 cells/dish, 21 days; for CFU-F increase: vs non-treated
Description: as §1
as §1, with “10” for “20”, “PMA,” for “exendin-4,”
as §1, with “10 ng/mL interferon-γ,” for “20 nM of exendin-4,”
as §1, with “10 μM” for “20 nM”, “tetrandrine,” for “exendin-4,”
as §1, with “10 μg/mL hyaluronic acid,” for “20 nM of exendin-4,”
as §1, with “30” for “20”, “substance P,” for “exendin-4,”
as §1, with “10” for “20”, “resveratrol,” for “exendin-4,”
as §1, with “10 μM” for “20 nM”, “lanifibranor,” for “exendin-4,”
Mesenchymal stem cells and the exendin-4-pretreated mesenchymal stem cells of the Example were each seeded at a density of 1,000 cells/dish into 100-mm cell culture dishes containing […] of a culture medium [high glucose DMEM (Gibco, Cat no. 11995-065), 10% fetal bovine serum (HyClone), 1% MEM non-essential amino acids solution (100×) (Gibco, Cat no. 11140-050)] per dish and cultured for 21 days. The cell-attached dishes were washed twice with PBS, followed by fixation with 95% methanol at room temperature for about 2 min. The fixed cells were washed three times with PBS and stained with 0.5% crystal violet [(sigma, C-3886, USA) […], methanol 100 ml] for 5 min. After water washing and drying at room temperature, colonies, each composed of 50 or more cells, were counted for comparison.
Mesenchymal stem cells and the PMA-pretreated mesenchymal stem cells of the Example were each seeded at a density of 1,000 cells/dish into 100-mm cell culture dishes containing […] of a culture medium [high glucose DMEM (Gibco, Cat no. 11995-065), 10% fetal bovine serum (HyClone), 1% MEM non-essential amino acids solution (100×) (Gibco, Cat no. 11140-050)] per dish and cultured for 21 days. The cell-attached dishes were washed twice with PBS, followed by fixation with 95% methanol at room temperature for about 2 min. […]

[3] = test system: primary umbilical cord-derived mesenchymal stem cells; experiment: Number of exosomes by nanoparticle tracking assay (NanoSight NS300); conditions: for No. of exosome particles, yield per 10^6 cells: then 72 h exosome-free FBS medium, non-treated 2.30
Description: as §1
(§3) After completion of culturing, the mesenchymal stem cells pretreated with exendin-4 were washed and additionally cultured for 72 hours in a culture medium supplemented with 10% fetal bovine serum (FBS) free of exosomes. The reason of employing exosome-free FBS was to prevent FBS-derived exosomes other than those secreted from the cells from being incorporated because generally used FBS contained a large amount of exosomes derived from bovine serum.
(§4) After 72 hours of culturing, the culture medium in which the pretreated mesenchymal stem cells were cultured was taken and centrifuged at 300×g for 10 min to remove residual cells and cell debris. The supernatant was filtered through a 0.22 μm filter, followed by centrifugation at 10,000×g and 4° C. for 70 min in a high-speed centrifuge. The supernatant thus obtained was subjected again to ultracentrifugation at 100,000×g and 4° C. for 90 min. The exosomes obtained as a pellet were diluted in PBS (phosphate buffered saline) before use in the following experiments.
as §1, with “10” for “20”, “PMA,” for “exendin-4,”
as §3, with “PMA” for “exendin-4”
as §1, with “10 ng/mL interferon-γ,” for “20 nM of exendin-4,”
as §3, with “interferon-γ” for “exendin-4”
as §1, with “10 μM” for “20 nM”, “tetrandrine,” for “exendin-4,”
as §3, with “tetrandrine” for “exendin-4”, “serum. […]” for “serum.”

[4] = test system: primary umbilical cord-derived mesenchymal stem cells; experiment: Content of exosomal protein (Bradford analysis, 595 nm); conditions: for Exosomal protein, yield per 10^6 cells: then 72 h exosome-free FBS medium
Description: as §1, §3, §4
as §1, with “10” for “20”, “PMA,” for “exendin-4,”
as §3, with “PMA” for “exendin-4”
as §1, with “10 ng/mL interferon-γ,” for “20 nM of exendin-4,”
as §3, with “interferon-γ” for “exendin-4”
as §1, with “10 μM” for “20 nM”, “tetrandrine,” for “exendin-4,”
as §3, with “tetrandrine” for “exendin-4”, “serum. […]” for “serum.”

[5] = test system: primary umbilical cord-derived mesenchymal stem cells; experiment: Content of exosomal RNA (NanoDrop); conditions: for Exosomal RNA, yield per 10^6 cells: then 72 h exosome-free FBS medium
Description: as §1, §3, §4
as §1, with “10” for “20”, “PMA,” for “exendin-4,”
as §3, with “PMA” for “exendin-4”
as §1, with “10 ng/mL interferon-γ,” for “20 nM of exendin-4,”
as §3, with “interferon-γ” for “exendin-4”
as §1, with “10 μM” for “20 nM”, “tetrandrine,” for “exendin-4,”
as §3, with “tetrandrine” for “exendin-4”, “serum. […]” for “serum.”

[6] = 20 nM exendin-4 pretreatment one week
[7] = 10 μM lanifibranor pretreatment one week

Compound | increase in proliferation relative to non-treated mesenchymal stem cells [1, 6] | proliferation ratio relative to non-treated mesenchymal stem cells (1) [1, 6] | colonies formed (each 50 or more cells) ([2]; 20 nM exendin-4 pretreatment one week, non-treated 28.6) [colonies] | CFU-F increase [2, 6] | fold more exosomes than non-treated mesenchymal stem cells [3, 6] | No. of exosome particles, yield per 10^6 cells [3, 6] | fold greater exosomal proteins than non-treated mesenchymal stem cells [4, 6] | Exosomal protein, yield per 10^6 cells ([4]; 20 nM exendin-4 pretreatment one week, non-treated 2.00) [μg] | fold greater exosomal RNA than non-treated mesenchymal stem cells [5, 6] | Exosomal RNA, yield per 10^6 cells ([5]; 20 nM exendin-4 pretreatment one week, non-treated 31.00) [ng] | increase in proliferation relative to non-treated mesenchymal stem cells [1, 7] | proliferation ratio relative to non-treated mesenchymal stem cells (1) [1, 7] | colonies formed (each 50 or more cells) ([2]; 10 μM lanifibranor pretreatment one week, non-treated 40) [colonies] | CFU-F increase [2, 7] | fold more exosomes than non-treated mesenchymal stem cells [3, 7] | No. of exosome particles, yield per 10^6 cells [3, 7] | fold greater exosomal proteins than non-treated mesenchymal stem cells [4, 7] | Exosomal protein, yield per 10^6 cells ([4]; 10 μM lanifibranor pretreatment one week, non-treated 2.0) [ug] | fold greater exosomal RNA than non-treated mesenchymal stem cells [5, 7] | Exosomal RNA, yield per 10^6 cells ([5]; 10 μM lanifibranor pretreatment one week, non-treated 27.00) [ng]
exendin-4 | about 340% | 3.4 | 185 | about 647% | about 5.85 fold | 13.45 10^9 | about 5.4 fold | 10.69 | about 5.6 fold | 174.34 |  |  |  |  |  |  |  |  |  | 
O=C(O)CCCc1cc2cc(Cl)ccc2n1S(=O)(=O)c1ccc2ncsc2c1 [lanifibranor] |  |  |  |  |  |  |  |  |  |  | about 181% | 1.81 | 56.7 | about 142% | about 4.95 fold | 11.4 10^9 | about 4.6 fold | 9.2 | about 4.1 fold | 110.34

Source: patent US20220195384A1, “COMPOSITION FOR PROMOTING PRODUCTION OF STEM CELL-DERIVED EXOSOMES AND INCREASING STEMNESS” (BREXOGEN INC., priority 2019, published 2022)
